Numbered stars: 1 amine (or outer) side, 2 acyl side, 3 side chain; on linkers, the order of the positions; unused ones are H or OH. Square brackets hold non-standard residues; d marks the D form. Peptide text beside a SMILES is read from it. Trp(βS-Me,7-OMe) = COc1cccc2c([C@H](C)[C@H](N)C(=O)O)c[nH]c12; X21 = COc1cccc2c([C@H](C)[C@H](N[*:1])C(=O)[*:2])c(C)[nH]c12; Trp(7-CN) = N#Cc1cccc2c(C[C@H](N)C(=O)O)c[nH]c12; Trp(7-Cl) = N[C@@H](Cc1c[nH]c2c(Cl)cccc12)C(=O)O; Phe(3-COOH) = N[C@@H](Cc1cccc(C(=O)O)c1)C(=O)O; Phe(4-CONH2) = NC(=O)c1ccc(C[C@H](N)C(=O)O)cc1; Phe(4-COOH) = N[C@@H](Cc1ccc(C(=O)O)cc1)C(=O)O; X30 = O=C([C@@H](N[*:1])[C@H](O)c1ccncc1)[*:2]; dPro(trans-4-F) = O=C(O)[C@H]1C[C@H](F)CN1; Pip(5R-OH) = O=C(O)[C@@H]1CC[C@@H](O)CN1; X1 = O=C([C@@H]1CC[C@H](N[*:1])C1)[*:2]; 4Pal = N[C@@H](Cc1ccncc1)C(=O)O; NMeE = CN[C@@H](CCC(=O)O)C(=O)O; dHyp = O=C(O)[C@H]1C[C@H](O)CN1; Ahp(2) = CCCCC[C@H](N)C(=O)O; αMeS = C[C@](N)(CO)C(=O)O; Nle = CCCC[C@H](N)C(=O)O; Sar = CNCC(=O)O
Legend:
[1] = target: T1, human TNFR1 extracellular domain (ECD) protein (Homo sapiens, UniProt P19438); test: SPR binding affinity to captured human TNFR1 ECD
T1 construct: HRV 3C protease cleavage site (C); 6His (C, cleaved yes); made in house; host or cells: Sf21 insect cells (baculovirus), secreted
T1 sequence (P19438 30-211): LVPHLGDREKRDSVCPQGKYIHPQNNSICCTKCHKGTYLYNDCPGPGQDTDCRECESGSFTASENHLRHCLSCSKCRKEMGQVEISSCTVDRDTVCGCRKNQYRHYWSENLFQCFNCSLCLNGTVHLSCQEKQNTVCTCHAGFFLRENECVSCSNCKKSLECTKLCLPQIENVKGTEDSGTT
Summary of the method: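 Peptide binding kinetics read by SPR in HEPES pH 7.4 running buffer with 2% DMSO, with TNFR2 ECD tested in parallel for off-target binding. Receptor ECDs, insect-cell expressed and biotinylated at C-terminal avi-tag, were captured via streptavidin. KA derived from association and dissociation rate constants.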

[2] = target: T2, TNFα-induced NF-κB signal transduction pathway (TNFR1 signaling) in THP-1 cells (Homo sapiens, UniProt P19438); test: THP-1 Lucia NF-κB reporter cell assay, inhibition of TNFα-induced NF-κB signaling; assay type: cell-based; settings: THP-1 NF-κB Lucia reporter cells, 10 ng/mL TNFα, 16-18 h, secreted luciferase; read-out: THP-1 IC50
T2 sequence (P19438 30-455): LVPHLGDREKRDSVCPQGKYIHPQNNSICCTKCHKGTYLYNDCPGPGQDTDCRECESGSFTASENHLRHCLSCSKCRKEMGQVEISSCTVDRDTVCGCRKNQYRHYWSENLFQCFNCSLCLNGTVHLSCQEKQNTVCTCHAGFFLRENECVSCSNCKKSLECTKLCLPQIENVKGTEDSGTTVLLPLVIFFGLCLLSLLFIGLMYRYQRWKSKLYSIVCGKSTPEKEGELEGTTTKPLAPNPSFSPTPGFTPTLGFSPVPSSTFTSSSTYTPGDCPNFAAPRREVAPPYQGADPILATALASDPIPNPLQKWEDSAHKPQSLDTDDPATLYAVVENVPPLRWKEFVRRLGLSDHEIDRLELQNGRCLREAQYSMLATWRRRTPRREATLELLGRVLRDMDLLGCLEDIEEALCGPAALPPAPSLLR
Summary of the method: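 Inhibition of TNFR1-driven NF-κB activation was measured as luminescence of secreted reporter luciferase following overnight (16-18 h) stimulation with 10 ng/mL TNFα.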

SMILES	Kd [1] [nM]	IC50 [2] [nM]
CCCCC[C@@H]1NC(=O)[C@@H]2CC[C@@H](C2)NC(=O)[C@H]([C@@H](C)c2c[nH]c3c(OC)cccc23)NC(=O)CN(C)C(=O)[C@H](Cc2ccc(C(N)=O)cc2)NC(=O)[C@H](Cc2ccc(C(N)=O)cc2)NC(=O)[C@](C)(CO)NC(=O)[C@H](Cc2c[nH]c3c(C#N)cccc23)NC(=O)[C@H](Cc2ccc(C(=O)O)cc2)NC(=O)[C@H](CC(N)=O)NC(=O)[C@H]2C[C@H](O)CN2C(=O)[C@H](Cc2c[nH]c3ccccc23)NC(=O)[C@H](CO)NC(=O)[C@H]([C@H](O)c2ccncc2)NC1=O [SEQ ID NO. 16] (cyclo([Ahp(2)][X30]SW[dHyp]N[Phe(4-COOH)][Trp(7-CN)][αMeS][Phe(4-CONH2)][Phe(4-CONH2)][Sar][Trp(βS-Me,7-OMe)][X1]))	0.09	0.6
CCCC[C@@H]1NC(=O)[C@@H]2CC[C@@H](C2)NC(=O)[C@H]([C@@H](C)c2c[nH]c3c(OC)cccc23)NC(=O)CN(C)C(=O)[C@H](Cc2cccc(C(=O)O)c2)NC(=O)[C@H](Cc2ccc(C(N)=O)cc2)NC(=O)[C@](C)(CO)NC(=O)[C@H](Cc2c[nH]c3c(Cl)cccc23)NC(=O)[C@H](Cc2ccc(C(=O)O)cc2)NC(=O)[C@H](CC(N)=O)NC(=O)[C@H]2C[C@H](O)CN2C(=O)[C@H](Cc2c[nH]c3ccccc23)NC(=O)[C@@H]2CC[C@@H](O)CN2C(=O)[C@H](Cc2ccncc2)NC1=O [SEQ ID NO. 17] (cyclo([4Pal][Pip(5R-OH)]W[dHyp]N[Phe(4-COOH)][Trp(7-Cl)][αMeS][Phe(4-CONH2)][Phe(3-COOH)][Sar][Trp(βS-Me,7-OMe)][X1][Nle]))	0.04	0.8
CCCC[C@@H]1NC(=O)[C@@H]2CC[C@@H](C2)NC(=O)[C@H]([C@@H](C)c2c[nH]c3c(OC)cccc23)NC(=O)CN(C)C(=O)[C@H](Cc2ccc(C(N)=O)cc2)NC(=O)[C@H](Cc2ccc(C(N)=O)cc2)NC(=O)[C@](C)(CO)NC(=O)[C@H](Cc2c[nH]c3c(C#N)cccc23)NC(=O)[C@H](Cc2ccc(C(=O)O)cc2)NC(=O)[C@H](CC(N)=O)NC(=O)[C@H](CCC(=O)O)N(C)C(=O)[C@H](Cc2c[nH]c3ccccc23)NC(=O)[C@@H]2CC[C@@H](O)CN2C(=O)[C@H](Cc2ccncc2)NC1=O [SEQ ID NO. 19] (cyclo([4Pal][Pip(5R-OH)]W[NMeE]N[Phe(4-COOH)][Trp(7-CN)][αMeS][Phe(4-CONH2)][Phe(4-CONH2)][Sar][Trp(βS-Me,7-OMe)][X1][Nle]))	0.07	0.6
CCCC[C@@H]1NC(=O)[C@@H]2CC[C@@H](C2)NC(=O)[C@H]([C@@H](C)c2c[nH]c3c(OC)cccc23)NC(=O)CN(C)C(=O)[C@H](Cc2ccc(C(=O)O)cc2)NC(=O)[C@H](Cc2ccc(C(N)=O)cc2)NC(=O)[C@](C)(CO)NC(=O)[C@H](Cc2c[nH]c3c(Cl)cccc23)NC(=O)[C@H](Cc2ccncc2)NC(=O)[C@H](CC(N)=O)NC(=O)[C@H]2C[C@H](F)CN2C(=O)[C@H](Cc2c[nH]c3ccccc23)NC(=O)[C@@H]2CC[C@@H](O)CN2C(=O)[C@H](Cc2ccncc2)NC1=O [SEQ ID NO. 101] (cyclo([4Pal][Trp(7-Cl)][αMeS][Phe(4-CONH2)][Phe(4-COOH)][Sar][Trp(βS-Me,7-OMe)][X1][Nle][4Pal][Pip(5R-OH)]W[dPro(trans-4-F)]N))	0.05	0.9
CCCC[C@@H]1NC(=O)[C@@H]2CC[C@@H](C2)NC(=O)[C@H]([C@@H](C)c2c(C)[nH]c3c(OC)cccc23)NC(=O)CN(C)C(=O)[C@H](Cc2ccc(C(=O)O)cc2)NC(=O)[C@H](Cc2ccc(C(N)=O)cc2)NC(=O)[C@](C)(CO)NC(=O)[C@H](Cc2c[nH]c3c(Cl)cccc23)NC(=O)[C@H](Cc2ccc(C(=O)O)cc2)NC(=O)[C@H](CC(N)=O)NC(=O)[C@H]2C[C@H](O)CN2C(=O)[C@H](Cc2c[nH]c3ccccc23)NC(=O)[C@@H]2CC[C@@H](O)CN2C(=O)[C@H](Cc2ccncc2)NC1=O [SEQ ID NO. 106] (cyclo([4Pal][Pip(5R-OH)]W[dHyp]N[Phe(4-COOH)][Trp(7-Cl)][αMeS][Phe(4-CONH2)][Phe(4-COOH)][Sar][X21][X1][Nle]))	0.04	0.6
